We go through four compounds from US5773459A, “Urea- and thiourea-type compounds” (Sugen, Inc., priority 1995, dated 1998).

What all share (type): cell-based
One experiment addresses T1, HER2 (Homo sapiens, UniProt P04626).
T1 construct: a human breast tumor cell line which expresses high levels of HER2 kinase; host or cells: BT-474 human breast tumor cells
Briefly: HER2-ELISA, HER2-BT474 assay measuring whole cell HER2 activity. On the procedure:
Growth assays were carried out using human mammary epithelial SKBR3 (ATCC HTB30) cells (SKBR3 cells over-express HER2), SKOV3 (ATCC HTB77) human ovarian cancer cell line (SKOV3 cells also over-express HER2), A431 cells (A431 cells over-express EGFR) MCF7 human breast carcinoma cells, MCF7 cells overexpressing the HER2 kinase (MCF7-HER2), NIH3T3 cells, and NIH3T3 cells overexpressing the HER2 kinase (3T3-HER2.
HER2-BT474 assays measuring whole cell HER2 activity was carried out as described below:
2. […] The growth media is RPMI+10% FBS+GMS-G (Gibco supplement)+Glutamine.
3. A monoclonal anti-HER2 antibody is used in ELISA.
Incubate the cells in 5% CO2 at 37° C. overnight.
2. ELISA Plate Coating and Blocking
The antibody coated plates can be used up to 2 weeks, when stored at 4° C.
(b) On the day of use, remove the coating solution, replace with 200 μl of Blocking Buffer, shake the plate, and then remove the blocking buffer and wash the plate just before adding lysate.
(a) […] the drugs in serum-free condition. Before adding drugs, the old media
(b) Dilute drug stock (in 100% DMSO) 1:10 with RPMI, and transfer 10 μl/well of this solution to the cells to achieve a final drug DMSO concentration at 1%. Incubate the cells in 5% CO2 at 37° C.
(c) Prepare fresh cell lysis buffer (HNTG*)
(d) After drug preincubation for two hours remove all the solution from the plate, transfer HNTG* 100 μl/well to the cells, and shake for 10 minutes.
(e) Use a 12-channel pipette to scrape the cells from the plate, and homogenize the lysate by repeat aspiration and dispensing. Transfer all the lysate to the ELISA plate and shake for 1 hour.
(f) Remove the lysate, wash the plate, add anti-pTyr (1:3,000 with TBST) 100 μl/well, and shake for 30 minutes.
(g) Remove anti-pTyr, wash the plate, add goat anti-rabbit IgG conjugated antibody (1:5,000 with TBST) 100 μl/well, and shake for 30 minutes.
(h) Remove anti-rabbit IgG antibody, wash the plate, and add fresh ABTS/H2 O2 (1.2 μl 30% H2 O2 in 10 ml ABTS) 100 μl/well to the plate to start color development, which usually takes 20 minutes.
(In general: In an ELISA, binding on a coated surface is turned into a signal by an enzyme label.)

Experiment [1] has as its system MCF7 cells overexpressing the HER2 kinase (MCF7-HER2). Description: MCF-7/HER-2 SRB Growth Assay. Conditions: Homo sapiens, read-out: GROWTH DATA: MCF7-HER2 0.5% FBS. The source says:
(§1) The following examples illustrate the ability of the exemplary compounds to inhibit receptor tyrosine kinases, such as HER2 and/or EGFR. The following target cells were used for cellular kinase assays: NIH3T3 clone C7 (Honegger et al., supra) engineered to over-express human EGF receptor; NIH3T3 cells engineered to over-express a chimeric receptor containing the EGFR extracellular domain and the HER2 intracellular kinase domain; the human mammary carcinoma line BT474 (ATCC HTB2) expressing HER2; and the human glioblastoma line U1242 that expresses PDGFR-beta. Growth assays were carried out using human mammary epithelial SKBR3 (ATCC HTB30) cells (SKBR3 cells over-express HER2), SKOV3 (ATCC HTB77) human ovarian cancer cell line (SKOV3 cells also over-express HER2), A431 cells (A431 cells over-express EGFR) MCF7 human breast carcinoma cells, MCF7 cells overexpressing the HER2 kinase (MCF7-HER2), NIH3T3 cells, and NIH3T3 cells overexpressing the HER2 kinase (3T3-HER2.
MCF-7/HER-2 SRB Growth Assay
The protocol is basically the same as that above (for the MCF-7 Growth Assay) except that immediately before the 30 compound is added, the normal growth media is removed and 0.5% FBS/RPMI supplemented with 2 mM Glutamine is added onto the cells. The compound is also prepared in this 0.5% serum media. The plate of cells is incubated for four days and developed as usual.

Experiment [2] deals with MCF7 human breast carcinoma cells. Description: MCF-7 SRB Growth Assay. The following applies: read-out: GROWTH DATA: MCF7 10% FBS.
Description: as §1
MCF-7 cells are seeded at 2000 cells/ well in a 96-well flat bottom plate in normal growth media, which was 10% FBS/RPMI supplemented with 2 mM Glutamine. The plate of cells is incubated for about 24 hours at 37° C. after which it receives an equal volume of compound dilution per well making the total volume per well 200 μl. The compound is prepared at 2 times the desired highest final concentration and serially diluted in the normal growth media in a 96-well round bottom plate and then transferred to plate of cells. DMSO serves as the vector control up to 0.2% as final concentration. The cells are then incubated at 37° C. in a humidified 5% CO2 incubator.
Four days following dosing of compound, the media is 15 discarded and 200 μl/well of ice-cold 10% TCA (Trichloroacetic Acid) is added to fix cells. After 60 minutes at 4° C., the TCA is discarded and the plate is rinsed 5 times with water. The plate is then air-dried and 100 μl/well of 0.4% SRB (Sulforhodamine B from Sigma) 20 in 1% Acetic Acid is added to stain cells for 10 minutes at room temperature. The SRB is discarded and the plate is rinsed 5 times with 1% Acetic Acid. After the plate is completely dried, 100 μl/well of 10 mM Tris-base is added to solubilize the dye. After 5 to 10 minutes, the plate is read on a Dynatech ELISA Plate Reader at dual wavelengths at 570 nm and 630 nm.

Where [3] appears, read: BT474 cells, read-out: ELISA DATA: HER2 - (BT474).

The structures appear in SMILES notation. pIC50: −log10 of the molar value. Read-outs that look alike come from different tables or passages of the source.

T1 sequence (P04626 23-1255): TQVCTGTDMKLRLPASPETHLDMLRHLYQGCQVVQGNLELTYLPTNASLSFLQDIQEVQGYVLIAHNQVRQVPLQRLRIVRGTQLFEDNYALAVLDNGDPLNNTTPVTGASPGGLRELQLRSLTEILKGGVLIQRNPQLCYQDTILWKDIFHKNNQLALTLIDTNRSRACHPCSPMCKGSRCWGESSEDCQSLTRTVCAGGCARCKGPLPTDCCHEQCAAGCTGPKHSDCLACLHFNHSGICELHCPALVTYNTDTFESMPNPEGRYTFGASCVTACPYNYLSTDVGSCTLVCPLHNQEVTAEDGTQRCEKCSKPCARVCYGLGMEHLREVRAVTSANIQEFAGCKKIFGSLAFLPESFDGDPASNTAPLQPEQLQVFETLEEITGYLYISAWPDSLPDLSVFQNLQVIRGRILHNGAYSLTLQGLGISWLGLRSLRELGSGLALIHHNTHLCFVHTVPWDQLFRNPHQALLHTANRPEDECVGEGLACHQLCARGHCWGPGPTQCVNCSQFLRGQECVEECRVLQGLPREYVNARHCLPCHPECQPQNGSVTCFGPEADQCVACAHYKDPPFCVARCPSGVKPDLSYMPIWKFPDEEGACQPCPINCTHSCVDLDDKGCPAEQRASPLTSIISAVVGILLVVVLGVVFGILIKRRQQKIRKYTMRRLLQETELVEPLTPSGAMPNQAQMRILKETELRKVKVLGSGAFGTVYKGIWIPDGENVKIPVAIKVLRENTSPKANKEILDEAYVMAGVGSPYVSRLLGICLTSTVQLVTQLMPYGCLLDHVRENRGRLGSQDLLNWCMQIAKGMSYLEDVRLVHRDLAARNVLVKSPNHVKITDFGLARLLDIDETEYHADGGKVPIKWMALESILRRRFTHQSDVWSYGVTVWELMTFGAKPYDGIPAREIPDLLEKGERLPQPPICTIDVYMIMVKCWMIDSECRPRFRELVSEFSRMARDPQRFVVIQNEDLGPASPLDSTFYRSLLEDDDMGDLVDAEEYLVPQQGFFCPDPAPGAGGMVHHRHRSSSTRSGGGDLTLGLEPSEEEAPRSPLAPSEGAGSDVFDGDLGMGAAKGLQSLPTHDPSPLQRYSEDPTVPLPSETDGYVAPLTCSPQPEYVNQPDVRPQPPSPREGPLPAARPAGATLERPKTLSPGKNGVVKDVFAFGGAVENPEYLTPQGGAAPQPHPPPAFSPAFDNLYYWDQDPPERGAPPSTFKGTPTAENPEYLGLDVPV

Take `CC(C)S(=O)(=O)c1csc(NC(=O)Nc2ccc(C(C)(C)C)cc2)c1Cl` [Example Z1, N-[3-Chloro-4-(isopropylsulfonyl)thien-2-yl]-N'-(4-t-butylphenyl)urea]: the pIC50 is 4.93 on HER2 (setting [3]), 6.05 in experiment [1] and 5.30 in experiment [2].
The like results for `CC(C)S(=O)(=O)c1csc(NC(=O)Nc2cc(C(F)(F)F)cc(C(F)(F)F)c2)c1Cl` [Example Z2, N-[3-Chloro-4-(isopropylsulfonyl)thien-2-yl]-N'-(3,5-di-trifluoromethylphenyl)urea] were, in that order, 5.49, 6.52 and 6.00.
Turning to `O=C(Nc1ccc(SC(F)(F)F)cc1)Nc1ccc(Oc2ccc(Cl)cc2Cl)nc1` [Example Z3], the values for the pIC50 (at HER2; in experiment [1]; in experiment [2]) were 5.00, 6.70 and 5.70, respectively.
Consider `N#Cc1ccc(NC(=S)Nc2ccc(S(=O)(=O)N3CCCCC3)cc2)cc1` [Example Z4, N-(4-Cyanophenyl)-N'-[4-[(piperid-1-yl)sulfonyl]phenyl]thiourea], for which the pIC50 at HER2 (setting [3]) was 5.03; in experiment [1], 6.00; in experiment [2], 5.52.
